# According to patent US8314094B2, “Benzoxazinone derivative” (MSD K.K, priority 2007, dated 2012):
# Molecular target: T1, human LCE (Homo sapiens, UniProt Q9H5J4)
# T1 sequence (Q9H5J4 1-265): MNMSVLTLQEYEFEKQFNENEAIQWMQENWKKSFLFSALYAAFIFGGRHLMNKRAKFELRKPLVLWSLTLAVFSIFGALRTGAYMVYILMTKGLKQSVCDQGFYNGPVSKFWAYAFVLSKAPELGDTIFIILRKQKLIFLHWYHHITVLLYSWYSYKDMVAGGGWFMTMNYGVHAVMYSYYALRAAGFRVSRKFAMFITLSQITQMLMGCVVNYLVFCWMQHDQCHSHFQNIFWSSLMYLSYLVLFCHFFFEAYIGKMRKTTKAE
# Assay: LCE enzymatic activity inhibition test
# Assay type: biochemical
# Conditions: human LCE enzyme, palmitoyl-CoA and [14C]-malonyl-CoA as substrates, pH 6.5, 37° C. for 90 minutes
# Method: An LCE enzymatic activity inhibition test was carried out by a modified method of Moon (J. Biol. Chem., Vol. 276, pp. 45358-45366, (2001)) et al. That is, the diluted test compound was added to a 96-well assay plate (Corning, 96-Well Assay Block) in an amount of 1.0 μL per well, and thereafter, 50 μL of a phosphate buffer solution (a 100 mM potassium phosphate buffer solution (pH 6.5)), 25 μL of a substrate solution (a 100 mM potassium phosphate buffer solution (pH 6.5), 4.0 μM rotenone, 80 μM fatty acid-free bovine serum albumin, 160 μM palmitoyl-CoA, 80 μM malonyl-CoA, 3.5 μM [^14C]-malonyl-CoA (1.92 GBq/mmol, manufactured by Amersham, Inc.)) was added to each well, and further, 25 μL of an enzyme solution (a 100 mM potassium phosphate buffer solution (pH 6.5), 100 μg/mL human LCE) was added thereto. Then, the upper part of the plate was hermetically closed with a seal member, and the plate was incubated at 37° C. for 90 minutes while gently shaking and stirring. Thereafter, to each well, 100 μL of 5 N HCl was added and the assay plate was stirred at room temperature for 5 minutes, whereby the enzymatic reaction was stopped and also acyl-CoA was hydrolyzed. Thereafter, the enzymatic reaction solution in each well was adsorbed to each well of a 96-well GF/C filter plate (PerkinElmer, Unifilter 96GF/C) through which water had been passed in advance, and then, each well was washed with water to remove unadsorbed malonyl-CoA and the GF/C filter plate was dried at 50° C. for 60 minutes. Thereafter, to each well, 30 μL of a scintillator (PerkinElmer, Microscinti 0) was added and the upper part of the plate was sealed, and the radioactivity of the fixed [^14C] was measured using a microplate scintillation counter (PerkinElmer, Top Count) from which the enzymatic activity was determined The human LCE enzyme inhibitory activity of the test compound was calculated using the radioactivity obtained from a well to which DMSO containing no test compound is added as a control.
row,Structure (SMILES),IC50 [nM]
1,"O=C1Nc2ccc(Cl)cc2C(CCNC(=O)c2ccc(F)cc2)(C(F)(F)F)O1 (single isomer, unassigned) [Example 32, N-{2-[(4R*)-6-chloro-2-oxo-4-(trifluoromethyl)-1,4-dihydro-2H-3,1-benzoxazin-4-yl]ethyl}-4-fluorobenzamide]",22
2,"O=C1Nc2ccc(Cl)cc2C(CCCNC(=O)c2ccc(F)cc2)(C(F)(F)F)O1 (single isomer, unassigned) [Example 33, N-{3-[(4R*)-6-chloro-2-oxo-4-(trifluoromethyl)-1,4-dihydro-2H-3,1-benzoxazin-4-yl]propyl}-4-fluorobenzamide]",17
3,"O=C1Nc2ccc(Cl)cc2C(CCCNS(=O)(=O)c2ccccn2)(C(F)(F)F)O1 (single isomer, unassigned) [Example 119, N-{3-[(4R*)-6-chloro-2-oxo-4-(trifluoromethyl)-1,4-dihydro-2H-3,1-benzoxazin-4-yl]propyl}pyridine-2-sulfonamide]",128
4,"O=C1Nc2ccc(Cl)cc2C(CCNS(=O)(=O)c2ccccn2)(C(F)(F)F)O1 (single isomer, unassigned) [Example 120, N-{2-[(4R*)-6-chloro-2-oxo-4-(trifluoromethyl)-1,4-dihydro-2H-3,1-benzoxazin-4-yl]ethyl}pyridine-2-sulfonamide]",5.4
5,"Cn1cc(-c2ccc3c(c2)C(CNC(=O)c2ccc(F)cc2)(C(F)(F)F)OC(=O)N3)cn1 (single isomer, unassigned) [Example 133, (4S*)-4-fluoro-N-{[6-(1-methyl-1H-pyrazol-4-yl)-2-oxo-4-(trifluoromethyl)-1,4-dihydro-2H-3,1-benzoxazin-4-yl]methyl}benzamide]",119
6,"O=C1Nc2ccc(-c3cc[nH]n3)cc2C(CNS(=O)(=O)c2ccc(F)cc2)(C(F)(F)F)O1 (single isomer, unassigned) [Example 150, 4-fluoro-N-{[(4S*)-2-oxo-6-(1H-pyrazol-3-yl)-4-(trifluoromethyl)-1,4-dihydro-2H-3,1-benzoxazin-4-yl]methyl}benzenesulfonamide]",17
7,"O=C1Nc2ccc(-c3cc[nH]n3)cc2C(CNS(=O)(=O)c2ccccn2)(C(F)(F)F)O1 (single isomer, unassigned) [Example 151, N-{[(4S*)-2-oxo-6-(1H-pyrazol-3-yl)-4-(trifluoromethyl)-1,4-dihydro-2H-3,1-benzoxazin-4-yl]methyl}pyridine-2-sulfonamide]",16
8,"O=C1Nc2ccc(-c3ccn[nH]3)cc2C(CNC(=O)c2ccc(F)cc2)(C(F)(F)F)N1 (single isomer, unassigned) [Example 182, 4-fluoro-N-{[(4S*)-2-oxo-6-(1H-pyrazol-5-yl)-4-(trifluoromethyl)-1,2,3,4-tetrahydroquinazolin-4-yl]methyl}benzamide]",6.6
9,"O=C1Nc2ccc(Cl)cc2C(CNC(=O)c2ccc(F)cc2)(C(F)(F)F)N1 (single isomer, unassigned) [Example 187, N-{[(4S*)-6-chloro-2-oxo-4-(trifluoromethyl)-1,2,3,4-tetrahydroquinazolin-4-yl]methyl}4-fluorobenzamide]",45
10,"O=C1Nc2ccc(-c3ccco3)cc2C(CNC(=O)c2ccc(F)cc2)(C(F)(F)F)O1 (stereo not shown) [Example 146, 4-fluoro-N-{[6-(2-furyl)-2-oxo-4-(trifluoromethyl)-1,4-dihydro-2H-3,1-benzoxazin-4-yl]methyl}benzamide]",14
11,"O=C1Nc2ccc(-c3cccs3)cc2C(CNC(=O)c2ccc(F)cc2)(C(F)(F)F)O1 (stereo not shown) [Example 147, 4-fluoro-N-{[2-oxo-6-(2-thienyl)-4-(trifluoromethyl)-1,4-dihydro-2H-3,1-benzoxazin-4-yl]methyl}benzamide]",13
12,"CN1CCN(c2ccc3c(c2)C(CNC(=O)c2ccc(F)cc2)(C(F)(F)F)OC(=O)N3)C1=O (stereo not shown) [Example 174, 4-fluoro-N-{[6-(3-methyl-2-oxazolidin-1-yl)-2-oxo-4-(trifluoromethyl)-1,4-dihydro-2H-3,1-benzoxazin-4-yl]methyl}benzamide]",5.3
13,"Cc1ccn(-c2ccc3c(c2)C(CNC(=O)c2ccc(F)cc2)(C(F)(F)F)OC(=O)N3)n1 (stereo not shown) [Example 178, 4-fluoro-N-{[6-(3-methyl-1H-pyrazol-1-yl)-2-oxo-4-(trifluoromethyl)-1,4-dihydro-2H-3,1-benzoxazin-4-yl]methyl}benzamide]",7.3
